Here are results for 11 compounds from patent US5736578A, “Ethylamido fluorenes and improved method of making same” (Bristol-Myers Squibb Company, priority 1996, dated 1998).

One may read the IC50 as the concentration needed to halve the response being measured.

Series [1] has as its system Cyclic AMP Accumulation in Intact Cells: Melatonin. Nature of the series: Functional activity: cyclic AMP accumulation in intact cells (forskolin-stimulated). It is filed as cell-based. The note with it: 10 min, read-out: I.A. (Intrinsic Activity) = Emax (experimental compound)/Emax (melatonin). As for the experimental part:
Measurement of Functional Activity
Cyclic AMP Accumulation in Intact Cells: Melatonin
The media was removed from cell flask and washed with Hank's salt solution or PBS, as appropriate. The cells were detached from flask. Enough media was added so that the concentration of cells is 4×10^5 /ml when counted with a hemocytometer. Dialyzed or heat inactivated fetal bovine serum (FBS) was used in the media when plating the cells. 1 ml of cell suspension was put into each well, then 2 mls of media. Cells were incubated overnight.
1. Stock solution: plain media (no serum or additives)+20 mM HEPES.
2. IBMX solution: media/HEPES+1 mM IBMX.
3. Assay solution: 90% stock solution+10% IBMX solution.
Each well gets 3 mls of assay solution for preincubation and 3 mls for the assay. Each test condition is done in triplicate.
a) Basal assay solution+DMSO
b) Forskolin stimulation: 10 μM final concentration.
All tests were done in triplicate at 37° C. Plates with cells were kept in a shallow 37° C. water bath throughout the reaction. Media was taken from the wells and 3 ml of preincubation media was added. After 10 min, that solution was removed and 3 mls of drug solution was added. After 10 min, the media was removed and reaction stopped with HCl. Samples set for at least an hour at room temperature. 1 ml from each dish was taken and put into a microfuge tube and spun to remove floating cells. After dilution to 1:100 for RIA, a radioimmuno-assay was done.

For a further series, the target named is T1, human ML1A (Homo sapiens, UniProt P48039).
T1 construct: expressed in transfected cells; pcDNA3; membrane homogenates
T1 sequence (P48039 whole entry): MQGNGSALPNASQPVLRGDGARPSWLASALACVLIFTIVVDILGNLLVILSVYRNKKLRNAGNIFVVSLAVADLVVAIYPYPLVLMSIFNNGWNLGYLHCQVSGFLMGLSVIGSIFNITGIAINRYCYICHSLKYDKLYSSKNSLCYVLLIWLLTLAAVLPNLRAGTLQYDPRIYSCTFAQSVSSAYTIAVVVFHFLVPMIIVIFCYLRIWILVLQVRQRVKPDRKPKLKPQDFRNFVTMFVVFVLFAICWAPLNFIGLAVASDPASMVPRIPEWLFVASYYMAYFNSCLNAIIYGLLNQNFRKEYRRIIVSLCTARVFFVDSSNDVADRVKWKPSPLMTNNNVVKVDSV
Nature of the series: Melatonergic binding (2-[125I]-iodomelatonin displacement, NIH 3T3 cell membranes). The following applies: human ML1A in NIH 3T3 membranes; 100 pM 2-[125I]-iodomelatonin; 37° C., 1 hour; read-out: Binding Affinity (IC50). As for the experimental part: Measurement of Melatonergic Binding
(a) 50 mM Tris buffer containing 12.5 mM MgCl2 and 2 mM EDTA (pH 7.4 at 37° C.).
(b) Wash buffer: 20 mM Tris base containing 2 mM MgCl2 (pH 7.4 at room temperature).
(d) 2-[^125 I]-iodomelatonin (100 pM final concn.). Source: NEN
2.Membrane preparation. The receptor cDNA (human ML1A) was subcloned into pcDNA3 and introduced into NIH 3T3 cells using Lipofectamine. Transformed NIH 3T3 cells resistant to geneticin were isolated and single colonies expressing high levels of 2-[^125 I]-iodomelatonin binding were isolated and characterized. Cell pellets were frozen at -80° C. for further use. For preparing membrane homogenates, pellets are thawed on ice, and resuspended in TME buffer, Tris base, MgCl2, EDTA (pH 7.4 at 37° C.), supplemented with aprotinin, leupeptin, and phenylmethlysulfonylfluoride. The cells were then homogenized using a dounce homogenizer, and centrifuged. The resulting pellet was resuspended with a dounce homogenizer in TME and frozen. On the day of assay, the small aliquot was thawed on ice and resuspended in TME buffer.
3. Incubation: 37° C. for 1 hour. Reaction is terminated by filtration.
The procedure was based on that disclosed in: Reppert, S. M., Weaver, D. R., and Ebisawa, R. (1994), Neuron, 13, 1177-1185 (1994).

The subject of a further series is circadian rhythms. The following applies: rats; in words; cited from earlier work.
Series [2] relates to jet-lag related sleep disturbances. The following applies: humans; in words; cited from earlier work.
For series [3] the following is noted: in words; cited from earlier work.

Take `CCC(=O)NCCC1c2cc(OC)ccc2-c2ccc(OC)cc21` [Example 5, N-[2-(2,7-dimethoxyfluoren-9-yl)ethyl]propanamide]: the Emax in series [1] was 114%. In addition, the IC50 at human ML1A is less than 10 nM. `CCCC(=O)NCCC1c2ccccc2-c2ccc(OC)cc21` (centres unmarked) [Example 6, N-[2-(2-methoxyfluoren-9-yl)ethyl]butanamide]: on human ML1A, the IC50 is less than 100 nM. On to `COc1ccc2c(c1)C(CCNC(=O)C1CC1)c1cc(OC)ccc1-2` [Example 7, N-[2-(2,7-dimethoxyfluoren-9-yl)ethyl]cyclopropane carboxamide], for which, in series [1], the Emax was determined as 102%. Turning to `COCC(=O)NCCC1c2cc(OC)ccc2-c2ccc(OC)cc21` [Example 9, N-[2-(2,7-dimethoxyfluoren-9-yl)ethyl]methoxyacetamide], the IC50 on human ML1A is less than 100 nM. As to `CCCC(=O)NCCC1c2cc(OC)ccc2-c2ccc(OC)cc21` [Example 10, N-[2-(2,7-dimethoxyfluoren-9-yl)ethyl]butanamide], the Emax in series [1] came to 115%.

`C=CC(=O)NCCC1c2ccccc2-c2ccc(OC)cc21` (centres unmarked) [Example 11, N-[2-(2-methoxyfluoren-9-yl)ethyl]-2-propenamide]: on human ML1A, the IC50 is less than 100 nM.

For `COc1ccc2c(c1)C(CCNC(=O)C1CCC1)c1cc(OC)ccc1-2` [Example 13, N-[2-(2,7-dimethoxyfluoren-9-yl)ethyl]cyclobutane carboxamide], on human ML1A, the IC50 was less than 10 nM.

With `COc1ccc2c(c1)C(CCNC(=O)C(C)(C)C)c1cc(OC)ccc1-2` [Example 14, N-[2-(2,7-dimethoxyfluoren-9-yl)ethyl]-2,2-dimethyl propanamide], at human ML1A, the IC50 is less than 500 nM.

On to `COc1ccc2c(c1)C(CCCNC(C)=O)c1cc(OC)ccc1-2` [Example 20, N-[3-(2,7-dimethoxyfluoren-9-yl)prop-1-yl]acetamide], for which the IC50 at human ML1A was less than 100 nM.

`CCOc1ccc2c(c1)C(CCNC(=O)CC)c1cc(OC)ccc1-2` (centres unmarked) [Example 29, N-[2-(2-ethoxy-7-methoxyfluoren-9-yl)-ethyl]propanamide]: at human ML1A, the half-maximal inhibitory concentration (IC50) is less than 100 nM.

For the compound `COc1ccc2[nH]cc(CCNC(C)=O)c2c1` [melatonin, N-acetyl-5-methoxytryptamine], in the series on circadian rhythms, the “effect of exogenous administration on circadian rhythms” value is reported as “synchronize circadian rhythms in rats”. Moreover, the “treatment of jet-lag related sleep disturbances” value in series [2] is “used to treat jet-lag related sleep disturbances”. Further, the oral bioavailability result in series [3] was “often low and variable”.
